Results taken from the supplement of paper PMC10307832.

How the values were obtained:
Assay in all cases: relative viability (nuclei count vs DMSO), 5 days (fraction); higher = more cells survive
[1] = compound: CC1=C(C(=O)N2C=CSC2=N1)CCN3CCC(=C(C4=CC=CC=C4)C5=CC=C(C=C5)F)CC3 + CC1(C)CCC(c2ccc(Cl)cc2)=C(CN2CCN(c3ccc(C(=O)NS(=O)(=O)c4ccc(N[C@H](CCN5CCOCC5)CSc5ccccc5)c(S(=O)(=O)C(F)(F)F)c4)cc3)CC2)C1 [Navitoclax] (partner 0.5 µM)
In short: (§1)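 For relative viability, nuclei counts in treated wells were divided by those in vehicle wells. Lung cancer cell lines had been pin-tool dosed in 1536-well plates the day after seeding and cultured for 5 days, then fixed and stained in one step (final 0.05% Triton X-100, 1% formaldehyde, 1 ug/ml Hoechst) and imaged at 4×. Doses were one drug alone or a fixed anchor-drug dose plus five library-drug doses (not always all listed) in √10 steps, and values are duplicate-plate medians.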

[2] = compound: CC1=C(C(=O)N2C=CSC2=N1)CCN3CCC(=C(C4=CC=CC=C4)C5=CC=C(C=C5)F)CC3 + C[C@@H](Oc1cc(-c2cnn(C3CCNCC3)c2)cnc1N)c1c(Cl)ccc(F)c1Cl [Crizotinib] (partner 1 µM)
In short: as §1

[3] = compound: CC1=C(C(=O)N2C=CSC2=N1)CCN3CCC(=C(C4=CC=CC=C4)C5=CC=C(C=C5)F)CC3 + O=C(CCCCCCC(=O)Nc1ccccc1)NO [Vorinostat] (partner 1 µM)
In short: as §1

[4] = compound: CC1=C(C(=O)N2C=CSC2=N1)CCN3CCC(=C(C4=CC=CC=C4)C5=CC=C(C=C5)F)CC3 + Cc1nc(Nc2ncc(C(=O)Nc3c(C)cccc3Cl)s2)cc(N2CCN(CCO)CC2)n1 [Dasatinib] (partner 0.075 µM)
In short: as §1

| Cell Line | relative viability ([1]; first compound 0.08 µM) | relative viability ([1]; first compound 0.253 µM) | relative viability ([1]; first compound 0.8 µM) | relative viability ([1]; first compound 2.53 µM) | relative viability ([1]; first compound 8 µM) | relative viability ([2]; first compound 0.08 µM) | relative viability ([2]; first compound 0.253 µM) | relative viability ([2]; first compound 0.8 µM) | relative viability ([2]; first compound 2.53 µM) | relative viability ([2]; first compound 8 µM) | relative viability ([3]; first compound 0.08 µM) | relative viability ([3]; first compound 0.253 µM) | relative viability ([3]; first compound 0.8 µM) | relative viability ([3]; first compound 2.53 µM) | relative viability ([3]; first compound 8 µM) | relative viability ([4]; first compound 0.08 µM) | relative viability ([4]; first compound 0.253 µM) | relative viability ([4]; first compound 0.8 µM) | relative viability ([4]; first compound 2.53 µM) | relative viability ([4]; first compound 8 µM) |
| --- | --- | --- | --- | --- | --- | --- | --- | --- | --- | --- | --- | --- | --- | --- | --- | --- | --- | --- | --- | --- |
| Calu-6 | 0.873 | 0.944 | 0.935 | 0.969 | 0.441 | 0.713 | 0.864 | 0.631 | 0.782 | 0.576 | – | – | – | – | – | – | – | – | – | – |
| SW 900 | – | – | – | – | – | – | – | – | – | – | 0.438 | 0.751 | 0.478 | 0.603 | 0.241 | 0.399 | 0.634 | 0.634 | 0.584 | 0.41 |
| LCLC-103H | – | – | – | – | – | 1.05 | 1.06 | 1.04 | 0.947 | 0.836 | 0.891 | 0.784 | 0.76 | 0.75 | 0.709 | 0.498 | 0.409 | 0.439 | 0.424 | 0.339 |
| NCI-H358 | – | – | – | – | – | 0.455 | 0.327 | 0.413 | 0.548 | 0.609 | 0.687 | 0.753 | 0.808 | 0.885 | 0.441 | 0.175 | 0.21 | 0.133 | 0.153 | 0.218 |
| HCC-44 | 0.989 | 1.28 | 1.01 | 1.13 | 0.477 | 0.836 | 0.842 | 0.927 | 0.858 | 0.665 | 1.19 | 1.19 | 1.09 | 1.24 | 0.93 | – | – | – | – | – |
| NCI-H650 | – | – | – | – | – | – | 0.791 | 0.377 | 0.718 | 0.608 | 0.731 | 0.395 | 0.482 | 0.486 | 0.369 | 0.474 | 0.504 | 0.388 | 0.546 | 0.46 |
| ABC-1 | – | – | – | – | – | 1.13 | 1.42 | 0.931 | 0.722 | 0.748 | 1.14 | – | 0.938 | 0.949 | 0.784 | 0.622 | 0.606 | 0.455 | 0.512 | 0.467 |
| NCI-H522 | – | – | – | – | – | – | – | – | – | – | 0.69 | 0.86 | 1.03 | 1.08 | 0.736 | 0.901 | 0.549 | 0.998 | 0.855 | 0.733 |
| NCI-H1299 | 1.14 | 1.03 | 1.03 | 1.06 | 0.654 | 0.971 | 0.943 | 0.976 | 0.965 | 0.69 | – | – | – | – | – | – | – | – | – | – |
| NCI-H1792 | 0.454 | 0.518 | 0.602 | 0.481 | 0.47 | 1.01 | 0.671 | 1.02 | 1.11 | 0.549 | – | – | – | – | – | 0.72 | 0.574 | 0.817 | 0.837 | 0.352 |
| NCI-H661 | – | – | – | – | – | 0.848 | 1.01 | 1.21 | 1 | 0.801 | 0.765 | 0.761 | 0.817 | 0.838 | 0.406 | 0.862 | 0.847 | 0.75 | 0.913 | 0.628 |
| IA-LM | 0.841 | 0.7 | 0.823 | 0.884 | 0.523 | – | 0.713 | 1.09 | 0.944 | 0.502 | 0.524 | 0.895 | 1.01 | 0.756 | 0.417 | – | – | – | – | – |
